Data as given in US8461171B2, “Hybrid opioid compounds and compositions” (QRxPHARMA Ltd., priority 2010, dated 2013).

Tests used:
Format in all cases: in vivo
CD1 mice [1] = test: Intracerebroventricular (icv) antinociceptive activity in CD1 mice; conditions: for Icv ED50 values: CD1 mice, confidence range in brackets
CD1 mice [2] = test: 24-hour tolerance study after icv administration in CD1 mice; conditions: for MPE still present after 24 hours: 24 hours after icv administration
CD1 mice [3] = test: Behavioral observations after icv administration
Method: These curves enabled the determination of ED50 values. […] Some behavioral observations are also reported.
This behavior was not observed 10 minutes post injection. […] The animals were active for about two hours. After 24 hours, the animals maintained about 20% MPE.

CD1 mice [4] = test: Oral antinociception in CD1 mice (tail flick), morphine/oxycodone alone, combined or as prodrugs; conditions: for oral antinociceptive activity (in words): CD1 mice

Compound	peak time (pt), time to maximum effect (CD1 mice [1]) [min]	Icv ED50 values (CD1 mice [1])	MPE still present after 24 hours (CD1 mice [2])	24-h Tolerance Study, outcome (CD1 mice [2]; icv)	24-h Tolerance Study, Day 1 (CD1 mice [2]; icv, Day 1)	24-h Tolerance Study, Day 2 (CD1 mice [2]; icv, Day 2)	oral antinociceptive activity (in words) (CD1 mice [4]; oral)	other results
CN1CC[C@]23c4c5ccc(O)c4O[C@H]2[C@@H](O)C=C[C@H]3[C@H]1C5 [Morphine, reference compound]	10	2.68 nmol/mouse						peak time [pt] (CD1 mice [1]): 10 ′
CN1CC[C@]23c4c5ccc(O)c4O[C@H]2[C@@H](NC(=O)COCCOCCn2cc(COCC(=O)N[C@H]4CC[C@@]6(O)C7Cc8ccc(O)c9c8[C@@]6(CCN7C)[C@H]4O9)nn2)CC[C@@]3(O)C1C5 [MLN II-83]	20	0.190 nmol/mouse (0.065-0.558)	20 ± 10 % MPE	seems to induce some tolerance	67.95 ± 13.62	48.35 ± 15.68		
CN1CC[C@]23c4c5ccc(O)c4O[C@H]2[C@@H](NC(=O)COCCOCCOCc2cn(CCOCCOCC(=O)N[C@H]4CC[C@@]6(O)C7Cc8ccc(O)c9c8[C@@]6(CCN7C)[C@H]4O9)nn2)CC[C@@]3(O)C1C5 [MLN II-121]	10	0.272 nmol/mouse (0.164-0.453)	about 20 % MPE					MPE still present after 24 hours (CD1 mice [2]; listed as MLN II- 121): 23.06 ± 4.30 % MPE; 48 hour tolerance test, outcome (CD1 mice [2]; icv, 48 hour test): No tolerance; 48 hour tolerance test, Day 1 (CD1 mice [2]; icv, 48 hour test, Day 1): 90.00 ± 10.69; 48 hour tolerance test, Day 2 (CD1 mice [2]; icv, 48 hour test, Day 2): 80.41 ± 12.06; behavioral observations (CD1 mice [3]; after icv administration): pacing and had straub tails; time the animals were active (CD1 mice [3]; after icv administration): about two
CN1CC[C@]23c4c5ccc(O)c4O[C@H]2[C@@H](NC(=O)COCCOCc2cn(CCOCCOCC(=O)N[C@@H]4CC[C@@]6(O)C7Cc8ccc(O)c9c8[C@@]6(CCN7C)[C@H]4O9)nn2)CC[C@@]3(O)C1C5 [MLN II-120]	10	0.571 nmol/mouse (0.423-0.770)		No tolerance	95.65 ± 4.65	91.38 ± 13.08		animals showing barrel rolling and out stretched limbs (CD1 mice [3]; with 2 minutes of icv injection, not observed 10 minutes post injection): about 50%
COc1ccc2c3c1O[C@H]1C(=NOC(=O)O[C@H]4C=CC5C6Cc7ccc(O)c8c7[C@@]5(CCN6C)[C@H]4O8)CC[C@@]4(O)C(C2)N(C)CC[C@]314 (stereo partly shown) [MLN II-45]							the same activity as when oxycodone and morphine are administered together in a 1:1 ratio	
COc1ccc2c3c1O[C@H]1/C(=N/OCC(=O)O[C@H]4C=CC5C6Cc7ccc(O)c8c7[C@@]5(CCN6C)[C@H]4O8)CC[C@@]4(O)C(C2)N(C)CC[C@]314 (stereo partly shown) [MLN II-31]							weak antinociceptive activity	maximum antinociception (CD1 mice [4]; 10 mg/kg, 4 hours after oral administration): 25%; antinociceptive activity (CD1 mice [4]; oral, measured from 15 min to 24 hours): 7-20 % of MPE
